According to patent US20260193602A1, “CULTURE MEDIUM COMPOSITION” (AJINOMOTO CO., INC., priority 2023, published 2026):

How the values were obtained:
[1] = system: HEK293 (Viral Production Cells 2.0) producing AAV8; assay: Production of AAV in HEK293 in suspension culture system (AAV8 genome titer by real-time PCR, viral particles by ELISA, full capsid ratio); assay type: cell-based, human
[2] = system: HEK293 2.sus producing Human adenovirus 32; conditions: Example 6; CDM4HEK293 with or without β-alanine; MOI 0.1
Experimental: The entire volume is placed in a 50 ml tube, 29 mL of glutamine-containing 293 SFM II is added thereto and the cells are suspended. 5 mL of the cell suspension is placed in a Petri dish and culturing with shaking (50 rpm) is performed in a CO2 incubator (temperature setting: 37° C., CO2 concentration: 5%, model: MCO-170AICUV-PJ, Panasonic Healthcare Co., Ltd.) for 2-3 days. • (4) After culturing, the culture solution is recovered and transferred to a 15 mL centrifuge tube. • (5) Centrifugation is performed for 5 min (1000 rpm, 190×g, 24° C.) and the supernatant is removed. • (6) 1 ML of glutamine-containing 293 SFM II is added to the 15 mL centrifuge tube and the cells are resuspended. The cell number is measured using a hemocytometer and glutamine-containing 293 SFM II is added to 3×10^5 cells/mL. […] The cell number is measured using a hemocytometer and the culture solution is added to 3×10^5 cells/mL. […]

Compound | AAV8 genome titer (relative) ([1]; Example 4, spermidine trihydrochloride final concentration 30 μM or 100 μM, FIG. 6) | full capsid ratio (relative) ([1]; Example 4, spermidine trihydrochloride final concentration 30 μM or 100 μM, FIG. 7) | AAV8 genome titer (relative) ([1]; Example 5, spermidine trihydrochloride 200 μM alone, FIG. 8) | AAV8 genome titer (relative) ([1]; Example 1, β-alanine final concentration 100 μM, vs medium without β-alanine = 100%, FIG. 1) | full capsid ratio (relative) ([1]; Example 1, β-alanine final concentration 100 μM, vs medium without β-alanine = 100%, FIG. 2) | AAV8 genome titer (relative) ([1]; Example 2, β-alanine final concentration 100 μM, FIG. 3) | AAV8 genome titer (relative) ([1]; Example 2, β-alanine final concentration 300 μM, FIG. 3) | virus count (capsid count (relative)) ([1]; Example 3, β-alanine final concentration 300 μM, FIG. 4) | full capsid ratio (relative) ([1]; Example 3, β-alanine final concentration 300 μM, FIG. 5) | AAV8 genome titer (relative) ([1]; Example 5, β-alanine 300 μM alone, FIG. 8) | adenovirus titer [2]
Cl.Cl.Cl.NCCCCNCCCN [spermidine trihydrochloride] | improvements | improvements | improved |  |  |  |  |  |  |  | 
NCCC(=O)O [β-alanine] |  |  |  | improvements | improvements | improvement | improvement | increase | improvement | improved | Improvement
